Experimental data taken from patent US20170270277A1, “METHOD FOR SUPERVISING CONSUMPTION OF A MEDICAL FOOD FOR PREVENTION AND/OR MANAGEMENT OF A DISEASE OR CONDITION” (Photonz Corporation Ltd., priority 2012, published 2017).

Assay: Laboratory test of the patient's serum lipids after consumption of the medical food, change from baseline (Example 4)
Type: in vivo
Details: 'one or more of'
Description: “Blood data” as used herein includes levels of cholesterol, diglycerides and triglycerides amongst other parameters described herein. Blood data parameters can be measured in accordance with any clinically acceptable methodology. For example, triglycerides, total cholesterol, HDL-C and fasting blood sugar can be sampled from serum and analyzed using standard photometry techniques. VLDL-TG, LDL-C and VLDL-C can be calculated or determined using serum lipoprotein fractionation by preparative ultracentrifugation and subsequent quantitative analysis by refractometry or by analytic ultracentrifugal methodology. Apo AI, Apo B and hsCRP can be determined from serum using standard nephelometry techniques. Lipoprotein (a) can be determined from serum using standard turbidimetric immunoassay techniques. LDL particle number and particle size can be determined using nuclear magnetic resonance (NMR) spectrometry. Remnants lipoproteins and LDL-phospholipase A2 can be determined from EDTA plasma or serum and serum, respectively, using enzymatic immunoseparation techniques. Oxidized LDL, intercellular adhesion molecule-1 and interleukin-6 levels can be determined from serum using standard enzyme immunoassay techniques. These techniques are described in detail in standard textbooks, for example Tietz Fundamentals of Clinical Chemistry, 6th Ed. (Burtis, Ashwood and Borter Eds.), WB Saunders Company. In one embodiment, subjects fast for up to 12 hours prior to blood sample collection, for example about 10 hours.
This is a further example of one particular embodiment of practicing the invention. The results presented in this example are expected to be generated.
A patient is concerned about maintaining good cardiovascular health and advises a medical professional of this desire. The patient may be risk of developing or be diagnosed of having mixed dyslipidemia, hyperlipidemia and hypertriglyceridemia.
The medical professional sets up a laboratory in accordance with clinically acceptable methodologies to determine the patient's serum lipids including triglycerides, total cholesterol, HDL cholesterol, LDL cholesterol and fasting blood sugar. The patient may have one or more of: a baseline triglyceride level of about 300 mg/dl to about 1500 mg/dl; baseline non-HDL-C value of about 200 mg/dl to about 400 mg/dl; baseline total cholesterol value of about 250 mg/dl to about 400 mg/dl; baseline vLDL-C value of about 140 mg/dl to about 200 mg/dl; baseline HDL-C value of about 10 to about 60 mg/dl; and/or baseline LDL-C value of about 50 to about 300 mg/dl.
Additional patient registration data including age, sex, weight, relative level of fitness and health, history of illness, family history of illness, and current prescribed pharmaceutical medications and medical foods and dosages, are also accumulated as a data set on a back end computer. The medical professional queries the backend computer about the patient's laboratory data and lifestyle metrics and this back end computer calculates the dose of the EPA-ethyl ester to be provided to the patient as a medical food for a certain period of time based on the analyzed metrics in order for that patient's serum lipids to be returned to normal levels with a low risk of cardiovascular disease. […]
After consumption of the medical food for the specified period of time, the patient receives another laboratory test of their serum lipids and the data is analyzed for changes from the original baseline on the back end computer. […]

[1] = same patient and medical food dosing

Question: Which “triglyceride levels compared to baseline” value (patient at risk of or with mixed dyslipidemia, hyperlipidemia, hypertriglyceridemia, 1 to 4 g of at least 60% pure EPA-ethyl ester 1 to 4 times per day) does the source give for `CC/C=C\C/C=C\C/C=C\C/C=C\C/C=C\CCCC(=O)OCC` [EPA-ethyl ester, eicosapentaenoyl-ethyl ester] here?
Answer: reduced

Question: And the “Apo B levels compared to baseline” value [1]?
Answer: reduced

Question: And the “HDL-C levels compared to baseline” value [1]?
Answer: increased

Question: And the “non-HDL-C levels compared to baseline” value [1]?
Answer: a reduction

Question: And the “vLDL levels compared to baseline” value [1]?
Answer: a reduction
